Experimental data from patent US20260257992A1, “AGONISTS OF SMALL HETERODIMER PARTNER FOR CANCER THERAPY” (THE BOARD OF TRUSTEES OF THE UNIVERSITY OF ILLINOIS, priority 2023, published 2026).

Legend:
NR0B2 = target: T1, NR0B2 (Mus musculus, UniProt Q62227); test: Attenuation of GW3965 (LXR agonist) induction of ABCA1 mRNA in BMDMs; assay type: cell-based
T1 construct: Dose response assay in BMDMs pre-treated with increasing doses of DSHN-OMe and then treated with 1 μM GW3965, using ABCA1 mRNA as an endpoint; endogenous in cells; host or cells: mouse bone marrow derived macrophages (BMDMs)
T1 sequence (Q62227 1-260): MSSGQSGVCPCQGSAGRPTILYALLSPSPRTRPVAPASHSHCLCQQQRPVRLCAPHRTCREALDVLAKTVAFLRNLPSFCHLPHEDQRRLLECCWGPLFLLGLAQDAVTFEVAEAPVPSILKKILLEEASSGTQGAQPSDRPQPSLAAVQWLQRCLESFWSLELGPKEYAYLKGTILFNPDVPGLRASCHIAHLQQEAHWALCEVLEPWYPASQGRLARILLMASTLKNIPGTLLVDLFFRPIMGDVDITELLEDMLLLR
Protocol: FIG. 5A-5D. DSHN-OMe, an NR0B2 small molecule ligand with increased potency in terms of reducing Treg expansion and strong efficacy against metastatic mammary tumors. (A) DSHN-OMe effectively reduces induction of LXR target gene ABCA1 by GW3965. Different letters denote statistical difference between GW3965 treated groups (N=3-4/group, 1-way ANOVA followed by Šidák test). (B) Dose response assay in BMDMs pre-treated with increasing doses of DSHN-OMe and then treated with 1 μM GW3965, using ABCA1 mRNA as an endpoint. Data was normalized to 0.01 μM DSHN-OMe (0%) and GW3965 alone (100%). DSHN (100 μM) is indicated for comparison (bar at end of graph). […] (C) Thermal shift assay using a recombinant protein presence of a fluorescent dye. Plot of raw data is above plot of first derivative. (D) DSHN-OMe is ineffective at regulating ABCA1 when NR0B2 is knocked down with siRNA in BMDMs.
The TM for apo/unliganded was 46.74±0.22, DSHN-OMe at 46.92±0.17 and DSHN at 46.34±0.51° C. (FIG. 5C).

4T1 tumors = test: Orthotopic 4T1 primary tumor growth; assay type: in vivo, mouse; conditions: DSHN combined with αPDL1
Description: FIG. 3A-3F. DSHN, a tool small molecule agonist of NR0B2 reduces macrophage/dendritic cell induced Treg expansion and tumor growth in murine models. […] (B) Dendritic cells (left-CD11B^+; CD11C^+) and CD4^+ T cells (right) were isolated from MMTV-PyMT tumors by FACS, and treated with vehicle or DSHN for 3d. The resulting frequency of Treg (CD4^+; CD25^+; FoxP3^+) was quantified by flow cytometry (right graph), (N=3-5/group, t test). […] The percentage of divided CD8+ T cells in the second round was quantified. (D) DSHN increases efficacy of αPDL1 therapy on orthotopic E0771 tumors. An optimal number of E0771 cells were grafted into FoxP3-EGFP mice and allowed to grow until tumors reached 100 mm^3. […] At the end of the study, lungs were removed and imaged ex vivo, quantified data indicated (N=10, 1-way ANOVA followed by Newman-Keuls multiple comparison test). […]
We then evaluated DSHN in a model where a low, suboptimal number of E0771-luc cells were grafted orthotopically. […] Treatment was ceased after 18 days and mice were monitored through time. […] We next assessed the effects of DSHN combined with αPDL1 on growth of primary tumors (optimal number of cells used to establish graft). […] We then evaluated the ability of DSHN to impact established metastatic disease—a stage that is refractory to standard of care therapy and immune checkpoint blockade. […]

## CCN(CC)S(=O)(=O)c1cccc2cc(C(=O)OC)c(O)cc12 [DSHN-OMe, Methyl 5-(N,N-diethylsulfamoyl)-3-hydroxy-2-naphthoate]
NR0B2; BMDMs pre-treated with compound, then 1 μM GW3965, 4 parameter variable slope fit, read-out: IC50, ABCA1 mRNA as endpoint
  IC50: 3.8 µM
NR0B2; BMDMs, GW3965
  LXR induction of ABCA1: reducing LXR induction of ABCA1 in a dose-related manner
NR0B2; BMDMs, NR0B2 siRNA, GW3965
  Attenuation of ABCA1 induction with NR0B2 knockdown: lost when NR0B2 was knocked down in BMDMs

## CCN(CC)S(=O)(=O)c1cccc2cc(C(=O)O)c(O)cc12 [DSHN, reference compound]
4T1 tumors
  Growth of established 4T1 tumors, combined with αPDL1: decreased growth
